Source: patent US20220062240A1, “METHODS OF TREATING CANCER USING A CLK INHIBITOR” (BioSplice Therapeutics, Inc., priority 2018, published 2022)
Read-outs that look alike come from different tables or passages of the source.

Assays:
[1] = test system: pancreatic cancer (8 cell lines); assay: CellTiter-Glo Viability Assay, pancreatic cancer; format: cell-based; details: Homo sapiens, inhibition of cancer cell proliferation
CLK2 = target: T1, CLK2 (Homo sapiens, UniProt P49760); assay: CLK2 kinase activity assay (Z-lyte, Ser/Thr 6 peptide); format: biochemical; details: recombinant CLK2 kinase, ATP 60 μM; read-out: EC50
T1 construct: purchased Thermo Fisher (Life Technologies), Z'-LYTE Kinase Assay Kits
Experimental: All reactions were performed in duplicate.

[2] = test system: liver cancer (3 cell lines); assay: CellTiter-Glo Viability Assay, liver cancer; format: cell-based; details: Homo sapiens, inhibition of cancer cell proliferation
CLK3 = CLK3 (Homo sapiens, UniProt P49761); assay: CLK3 kinase activity assay (Z-lyte, Ser/Thr 18 peptide)
[3] = test system: colorectal cancer (6 cell lines); assay: CellTiter-Glo Viability Assay, colorectal cancer; format: cell-based; details: Homo sapiens; SW480 cell line; inhibition of cancer cell proliferation; read-out: Colorectal cancer, EC50 (μM) SW480
[4] = test system: haematopoietic & lymphoid tumors (13 cell lines); assay: CellTiter-Glo Viability Assay, haematopoietic & lymphoid tumors; format: cell-based; details: Homo sapiens, inhibition of cancer cell proliferation
[5] = test system: lung cancer (4 cell lines); assay: CellTiter-Glo Viability Assay, lung cancer; format: cell-based; details: Homo sapiens, inhibition of cancer cell proliferation
HCC1599 = assay: CellTiter-Glo Viability Assay, breast cancer; format: cell-based; details: Homo sapiens, 96 h; HCC1599, breast cancer, four days; read-out: EC50
CAMA1 = assay: CellTiter-Glo Viability Assay, breast cancer; format: cell-based; details: Homo sapiens, CAMA-1, 96 h; CAMA1, breast cancer, four days; read-out: EC50
BT-549 = assay: CellTiter-Glo Viability Assay, breast cancer; format: cell-based; details: Homo sapiens, 96 h; BT-549, breast cancer, four days; read-out: EC50
T47D = assay: CellTiter-Glo Viability Assay, breast cancer; format: cell-based; details: Homo sapiens, 96 h, breast cancer, four days, read-out: EC50
ZR-75-1 = assay: CellTiter-Glo Viability Assay, breast cancer; format: cell-based; details: Homo sapiens, 96 h; ZR-75-1, breast cancer, four days; read-out: EC50
MCF7 = assay: CellTiter-Glo Viability Assay, breast cancer; format: cell-based; details: Homo sapiens, 96 h; MCF7, breast cancer, four days; read-out: EC50
DU4475 = assay: CellTiter-Glo Viability Assay, breast cancer; format: cell-based; details: Homo sapiens, DU-4475, 96 h; DU4475, breast cancer, four days; read-out: EC50
MDA-MB-231-Luc = assay: CellTiter-Glo Viability Assay, breast cancer; format: cell-based; details: Homo sapiens, 96 h; MDA-MB-231-Luc, breast cancer, four days; read-out: EC50
[6] = test system: prostate cancer (5 cell lines); assay: CellTiter-Glo Viability Assay, prostate cancer; format: cell-based; details: Homo sapiens
[7] = test system: ovarian cancer (4 cell lines); assay: CellTiter-Glo Viability Assay, ovarian cancer; format: cell-based; details: Homo sapiens, inhibition of cancer cell proliferation
all 50 cell lines = assay: CellTiter-Glo Viability Assay, average across all cell lines; format: cell-based; details: Homo sapiens; across all 50 cell lines; read-out: average EC50 for inhibition of cancer cell proliferation
Procedure, shortened: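 Cells were plated at 300-3,000 per well in their own media, then treated with compound in duplicate, with DMSO wells as controls. After four days at 37° C and 5% CO2, CellTiter-Glo was added, and luminescence was read. EC50s were fitted.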

T1 sequence (P49760 whole entry): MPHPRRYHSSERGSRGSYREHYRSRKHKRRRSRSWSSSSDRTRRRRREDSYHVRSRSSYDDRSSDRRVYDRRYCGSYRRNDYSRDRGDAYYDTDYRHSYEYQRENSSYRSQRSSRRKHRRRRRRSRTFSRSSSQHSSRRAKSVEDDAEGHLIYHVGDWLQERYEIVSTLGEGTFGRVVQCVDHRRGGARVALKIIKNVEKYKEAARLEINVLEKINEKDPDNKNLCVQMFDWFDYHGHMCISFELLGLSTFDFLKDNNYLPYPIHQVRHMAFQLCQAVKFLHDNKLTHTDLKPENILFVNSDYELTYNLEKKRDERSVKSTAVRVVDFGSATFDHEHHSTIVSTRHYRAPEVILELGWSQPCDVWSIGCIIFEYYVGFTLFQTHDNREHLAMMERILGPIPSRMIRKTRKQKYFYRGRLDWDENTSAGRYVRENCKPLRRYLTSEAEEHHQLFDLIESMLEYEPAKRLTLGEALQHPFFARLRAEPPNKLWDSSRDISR
CLK3, sequence (P49761 whole entry): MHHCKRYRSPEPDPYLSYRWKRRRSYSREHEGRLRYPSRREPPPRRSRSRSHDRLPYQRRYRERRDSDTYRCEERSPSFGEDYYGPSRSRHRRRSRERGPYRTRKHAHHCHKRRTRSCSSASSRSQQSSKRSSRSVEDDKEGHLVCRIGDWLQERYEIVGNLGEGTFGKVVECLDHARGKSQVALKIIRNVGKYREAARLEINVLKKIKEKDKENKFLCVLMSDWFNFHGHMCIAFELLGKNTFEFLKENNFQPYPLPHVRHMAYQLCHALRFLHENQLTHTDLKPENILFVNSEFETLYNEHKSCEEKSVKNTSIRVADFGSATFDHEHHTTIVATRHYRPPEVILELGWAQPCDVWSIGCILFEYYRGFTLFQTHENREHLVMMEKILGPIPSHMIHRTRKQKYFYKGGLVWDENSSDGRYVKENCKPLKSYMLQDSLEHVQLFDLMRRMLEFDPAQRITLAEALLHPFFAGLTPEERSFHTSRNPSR

## Cc1n[nH]c2ccc(-c3cncc(N[C@H]4CC[C@@H](N)CC4)n3)cc12 [Compound 64]
[1]; BXPC-3, BxPC3 cell line, read-out: Pancreatic cancer, EC50 BxPC3
  EC50: 365 nM
[1]; CAPAN-1, Capan1 cell line, read-out: Pancreatic cancer, EC50 Capan1
  EC50: 498 nM
[1]; Capan-2, Capan2 cell line, read-out: Pancreatic cancer, EC50 Capan2
  EC50: 361 nM
[1]; MIA PaCa-2 cell line, read-out: Pancreatic cancer, EC50 MIA PaCa-2
  EC50: 157 nM
[1]; PANC 05.04 cell line, read-out: Pancreatic cancer, EC50 PANC 05.04
  EC50: 427 nM
[1]; PANC-1 cell line, read-out: Pancreatic cancer, EC50 PANC-1
  EC50: 815 nM
[1]; UPAFII cell line, read-out: Pancreatic cancer, EC50 UPAFII
  EC50: 403 nM
CLK2
  EC50: 1.7 nM
[2]; SNU-398, SNU398 cell line, read-out: Liver cancer, EC50 SNU398
  EC50: 59 nM
[2]; HEPG2 cell line, read-out: Liver cancer, EC50 HEPG2
  EC50: 402 nM
[2]; PLC/PRF/5 cell line, read-out: Liver cancer, EC50 PLC/PRF/5
  EC50: 1490 nM
CLK3
  EC50: 482 nM
[3]
  EC50: 0.123 µM
[4]; DND41, DND-41 cell line, read-out: Haematopoietic & Lymphoid tumors, EC50 (μM) DND-41
  EC50: 0.186 µM
[4]; MV4-11, MV-4-11 cell line, read-out: Haematopoietic & Lymphoid tumors, EC50 (μM) MV-4-11
  EC50: 0.071 µM
[4]; Rec1, REC-1 cell line, read-out: Haematopoietic & Lymphoid tumors, EC50 (μM) REC-1
  EC50: 0.812 µM
[4]; SU-DHL-4, SUDHL4 cell line, read-out: Haematopoietic & Lymphoid tumors, EC50 (μM) SUDHL4
  EC50: 0.138 µM
[4]; HL-60 cell line, read-out: Haematopoietic & Lymphoid tumors, EC50 (μM) HL-60
  EC50: 0.488 µM
[4]; JM1 cell line, read-out: Haematopoietic & Lymphoid tumors, EC50 (μM) JM1
  EC50: 0.175 µM
[4]; JURKAT, Clone E6-1 cell line, read-out: Haematopoietic & Lymphoid tumors, EC50 (μM) JURKAT, Clone E6-1
  EC50: 0.624 µM
[4]; JeKo-1 cell line, read-out: Haematopoietic & Lymphoid tumors, EC50 (μM) JeKo-1
  EC50: 0.14 µM
[4]; KASUMI-1 cell line, read-out: Haematopoietic & Lymphoid tumors, EC50 (μM) KASUMI-1
  EC50: 0.275 µM
[4]; Loucy cell line, read-out: Haematopoietic & Lymphoid tumors, EC50 (μM) Loucy
  EC50: 0.217 µM
[4]; MOLT-4 cell line, read-out: Haematopoietic & Lymphoid tumors, EC50 (μM) MOLT-4
  EC50: 0.383 µM
[4]; TF-1 cell line, read-out: Haematopoietic & Lymphoid tumors, EC50 (μM) TF-1
  EC50: 0.92 µM
[4]; TOLEDO cell line, read-out: Haematopoietic & Lymphoid tumors, EC50 (μM) TOLEDO
  EC50: 0.269 µM
[5]; A-427, A427 cell line, read-out: Lung cancer, EC50 (μM) A427
  EC50: 0.243 µM
[5]; HCC78, HCC-78 cell line, read-out: Lung cancer, EC50 (μM) HCC-78
  EC50: 0.725 µM
[5]; NCI-H460 cell line, read-out: Lung cancer, EC50 (μM) NCI-H460
  EC50: 0.759 µM
[5]; NCI-H522 cell line, read-out: Lung cancer, EC50 (μM) NCI-H522
  EC50: 0.396 µM
HCC1599
  EC50: 262 nM
CAMA1
  EC50: 473 nM
BT-549
  EC50: 228 nM
T47D
  EC50: 465 nM
ZR-75-1
  EC50: 211 nM
MCF7
  EC50: 633 nM
DU4475
  EC50: 121 nM
MDA-MB-231-Luc
  EC50: 451 nM
[6]; DU-145, read-out: Prostate cancer EC50 Du-145
  EC50: 543 nM
[6]; PC-3, PC3 cell line, inhibition of cancer cell proliferation, read-out: Prostate cancer EC50 PC3
  EC50: 294 nM
[6]; 22Rv1 cell line, inhibition of cancer cell proliferation, read-out: Prostate cancer EC50 22Rv1
  EC50: 379 nM
[6]; LNCap clone FGC cell line, inhibition of cancer cell proliferation, read-out: Prostate cancer EC50 LNCap clone FGC
  EC50: 636 nM
[6]; VCaP (Sigma) cell line, inhibition of cancer cell proliferation, read-out: Prostate cancer EC50 VCaP (Sigma)
  EC50: 616 nM
[7]; PA-1, PA1 cell line, read-out: Ovarian cancer, EC50 (μM) PA1
  EC50: 0.2 µM
[7]; TOV112D, TOV-112D cell line, read-out: Ovarian cancer, EC50 (μM) TOV-112D
  EC50: 0.155 µM
[7]; OV-90 cell line, read-out: Ovarian cancer, EC50 (μM) OV-90
  EC50: 0.179 µM
[7]; OVCAR-3 cell line, read-out: Ovarian cancer, EC50 (μM) OVCAR-3
  EC50: 0.127 µM
All 50 cell lines
  EC50: 398 nM
